Source: patent US5955506A, “Benzamides for neurodegenerative disorder treatment” (priority 1998, dated 1999)

Assays:
striatal dopamine [1] = assay: 6-Hydroxydopamine dopamine depletion model; format: in vivo, male Sprague Dawley rats; conditions: for Test side as percent of control side: right striatum injected with 6-hydroxydopamine
Procedure: Another assay for agents effective in treating dopamine-associated neurodegenerative disorders has been developed. In this assay, the striatum of test animals is injected with the neurotoxicant, 6-hydroxydopamine. 6-Hydroxydopamine has a dopamine-depleting action and is widely accepted as a model for these conditions. Test compounds are administered to determine if they are capable of preventing or reducing the loss of dopamine in the test animals. Again, to the extent that dopamine levels are retained, a compound can be considered an effective agent.
Tests were conducted to assess the ability of CPI-1189 to protect against 6-hydroxydopamine-induced damage. This is a widely accepted model for Parkinson's disease in which 6-hydroxydopamine is believed to produce its toxic effects by inducing oxidative stress. 6-hydroxydopamine has been used extensively since the 1960's as a neurotoxicant. Because 6-hydroxydopamine primarily affects catecholaminergic neurons, it has been mainly used for the experimental study of Parkinson's disease. The compound has had widespread use as a means of administering unilateral lesions in the nigrastriatal system. Animals treated with this toxin show biochemical and behavioral alterations that can be measured and probed pharmacologically to assess both the severity of the lesion and to determine the effect of potential therapeutic interventions.
The protective dose response of CPI-1189 to 6-hydroxydopamine-induced damage to the nigrastriatal system was determined. Damage to the nigrastriatal system was measured in terms of striatal dopamine levels.
Acclimated male Sprague Dawley rats, 55 to 120 days of age were used.
6-hydroxy-dopamine (Research Biochemicals Incorporated) was prepared in a 0.9% NaCl solution containing 0.1 mg/ml ascorbic acid on the morning of the experiment. […]
Immediately following sacrifice, dissected striatal tissue was collected and analyzed by HPLC/EC […] with the results shown in Table 5.

striatal dopamine [2] = assay: Long term protective effect test in the MPTP model (sacrifice 3 or 14 days after dosing); format: in vivo, C57BL/6J mice
Procedure: C57BL/6J mice were pretreated with either vehicle (1% methyl cellulose) or a drug (p.o.) 30 min before MPTP. MPTP was dissolved in isotonic saline (0.9%) and given subcutaneously as a single dose of 15 mg free base/kg body weight to produce a reduction in striatal dopamine to about 0.5 nanomoles/mg protein. Groups of mice (n=8-10 per group) received either vehicle plus saline, vehicle plus MPTP, or drug plus MPTP. Seventy two hours after receiving MPTP, mice were sacrificed using cervical dislocation and the striata were excised. The tissue was homogenized in 0.4 N perchloric acid, centrifuged, and the supernatant analyzed by high performance liquid chromatography/electro-chemical detection (HPLC/ED) for dopamine levels. Supernatants were stored in a -90° C. freezer between the time of collection and analysis.
Additional studies were carried out to determine the long-term effect on dopamine depletion of the compounds of the invention. Using the general test method described above, C57BL/6J mice were pretreated with either vehicle or test compound and MPTP and then sacrificed either 3 or 14 days after dosing.

[3] = In vivo biotransformation of CPI1020 (metabolite in blood after oral administration); conditions: rats and mice, CPI1020 administered orally
Description: Commonly owned U.S. Pat. No. 5,472,983, referred to above, discloses several benzamides useful in treating neurodegenerative diseases based on their protective action in the MPTP mouse model of Parkinson's disease. […] This compound is likely formed in the body by reduction of the ring nitro of CPI1020 to an amino moiety (CPI1160) followed by acetylation of the amino function.

Aβ(1-40) = molecular target: T1, Aβ(1-40) (Homo sapiens, UniProt P05067); assay: Aβ(1-40) β-pleated sheet formation, Thioflavin T fluorescence; format: biochemical; conditions: Aβ(1-40) 3 μg, PBS pH 6.0, 4 hours, read-out: % Protection (β-pleated sheet formation)
T1 construct: aggregated fibrils of synthetic Aβ(1-40)
T1 sequence (P05067 672-711 limits assumed): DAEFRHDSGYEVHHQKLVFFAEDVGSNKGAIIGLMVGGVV
Description: Effect of Benzamides on Aβ(1-40) β-Pleated Sheets Formation: Detection of Amyloid Aggregation in Solution by Thioflavin T Fluorescence Spectra
Several assays have been developed to assess the activity of compounds as agents for the treatment of Alzheimer's disease.
Thioflavin T (ThT) rapidly associates with β pleated sheets particularly the aggregated fibrils of synthetic Aβ(1-40), giving rise to a new excitation maximum at 440 nm and enhanced emission at 490 nm. According to this principle, agents which could delay or reverse the formation of such association might be of therapeutic benefit.
Experiments were performed in 96 well plates and the fluorescence changes were evaluated using Fluorescence plate reader-CytoFluor II. Briefly, into each well was aliquoted 95 μl of ThT (3 μM) prepared in PBS (pH 6.0), 2 μl of NRT (10 μM) prepared in 0.05% of methylcellulose in PBS (pH 6.0), and 3 μl of Aβ(1-40)(3 μg) prepared with dH2 O. The fluorescence measurement began when Aβ(1-40) was added and continued for 4 hours at which the aggregation reached a plateau. The % protection of β-pleated sheet formation was calculated from the relative fluorescence unit difference between aggregation in the presence and in the absence of test compounds.

striatal dopamine [4] = assay: MPTP dopamine depletion model (mice, sacrificed 72 h after MPTP); format: in vivo, C57BL/6J mice; conditions: for % non-MPTP control (striatal dopamine) / Dopamine/mg protein ± S.E.M.: 30 mg/kg p.o.; for % non-MPTP control (striatal dopamine) / Dopamine, nM/mg ± S.E.M., test compound / Protection, %: 15 mg/kg MPTP model; for Dopamine/mg protein ± S.E.M.: 30 min before 15 mg/kg MPTP s.c.; for protection from MPTP neurotoxicity, % of control / protection from the neurotoxic action of MPTP (in words): 50 mg/kg; for Dopamine, nM/mg ± S.E.M., test compound / Protection, %: 50 mg/kg p.o.; for Protection, %: versus methyl cellulose control (Standard); for prevention of dopamine depletion following MPTP challenge (in words): Table 1 results, 30 mg/kg; for Degree of protection, % (MPTP dopamine depletion test): Table 3, dose not given
Procedure: These findings have led to the development of an assay for agents effective in treating dopamine-associated neurodegenerative disorders, such as Parkinson's disease. In this assay, test animals are given an amount of MPTP adequate to severely depress their dopamine levels. Test compounds are administered to determine if they are capable of preventing the loss of dopamine in the test animals. To the extent that dopamine levels are retained, a compound can be considered to be an effective agent for slowing or delaying the course of neurodegenerative disease, e.g., Parkinson's disease. Dopamine Depletion Studies (MPTP Model) C57BL/6J mice were pretreated with either vehicle (1% methyl cellulose) or a drug (p.o.) 30 min before MPTP. MPTP was dissolved in isotonic saline (0.9%) and given subcutaneously as a single dose of 15 mg free base/kg body weight to produce a reduction in striatal dopamine to about 0.5 nanomoles/mg protein. Groups of mice (n=8-10 per group) received either vehicle plus saline, vehicle plus MPTP, or drug plus MPTP. Seventy two hours after receiving MPTP, mice were sacrificed using cervical dislocation and the striata were excised. The tissue was homogenized in 0.4 N perchloric acid, centrifuged, and the supernatant analyzed by high performance liquid chromatography/electro-chemical detection (HPLC/ED) for dopamine levels. Supernatants were stored in a -90° C. freezer between the time of collection and analysis. The drugs were combined with methyl cellulose and were homogenized in water for dosing. The dosage amount ranged from 10 to 50 mg/kg for CPI1160, CPI1189 and CPI1234, and from 50 to 100 mg/kg for CPI1020.

Row | Compound | inhibition at 10 µM (Aβ(1-40)) | % non-MPTP control (striatal dopamine) (striatal dopamine [4]) | Dopamine/mg protein ± S.E.M. (striatal dopamine [4]) | prevention of dopamine depletion following MPTP challenge (in words) (striatal dopamine [4]) | Degree of protection, % (MPTP dopamine depletion test) (striatal dopamine [4]) | other results
1 | CC(=O)Nc1ccc(C(=O)NC(C)(C)C)cc1 [CPI1189, N-tert-butyl-4-acetamidobenzamide] | 48.3 ± 10.1% | 89.7% | 1.37 ± .14 /MG PROTEIN | effective in preventing dopamine depletion | – | Test side as percent of control side (striatal dopamine [1]; 50 mg/kg oral): 72.82 ± 8.32%; Test side as percent of control side (striatal dopamine [1]; 100 mg/kg oral): 77.61 ± 13.5%; protection against 6-hydroxydopamine induced dopamine depletion (in words) (striatal dopamine [1]; rat, in vivo): able to protect against 6-hydroxydopamine induced dopamine depletion; Striatal dopamine, percent of methyl cellulose/saline control (striatal dopamine [2]; 3 Day Sac): 100%; Striatal dopamine, percent of methyl cellulose/saline control (striatal dopamine [2]; 14 Day Sac): 96.7%; protection against MPTP induced dopamine depletion (in words) (striatal dopamine [2]; sacrificed three days and fourteen days post MPTP): able to protect against MPTP induced dopamine depletion; in vivo biotransformation product of CPI1020 found in blood (in words) [3]: found in the blood of rats and mice; protection from MPTP neurotoxicity, % of control (striatal dopamine [4]): 105 % of control; protection from the neurotoxic action of MPTP (in words) (striatal dopamine [4]): complete protection; Dopamine, nM/mg ± S.E.M., test compound (striatal dopamine [4]): 1.57 ± .11 nM/mg; Protection, % (striatal dopamine [4]): 105%; potency relative to CPI1020 in protecting mice from dopamine reduction in the striatum (striatal dopamine [4]; s.c. MPTP): approximately 10 times
2 | CC(C)(C)NC(=O)c1ccc([N+](=O)[O-])cc1 [CPI1020, N-tert-butyl-4-nitrobenzamide, reference compound] | – | – | – | – | – | protection from MPTP neurotoxicity, % of control (striatal dopamine [4]): 56 % of control; protection from the neurotoxic action of MPTP (in words) (striatal dopamine [4]): not as effective; Dopamine, nM/mg ± S.E.M., test compound (striatal dopamine [4]): 0.58 ± .14 nM/mg; Protection, % (striatal dopamine [4]): 56%
3 | CC(=O)Nc1cccc(C(=O)NC(C)(C)C)c1 [CPI1234, N-tert-butyl-3-acetamidobenzamide] | – | 76.7% | 1.02 ± .05 /MG PROTEIN | effective in preventing dopamine depletion | 77% | –
4 | CC(C)(C)NC(=O)c1ccc(N)cc1 [CPI1160, N-tert-butyl4-aminobenzamide] | – | 93.9% | 1.25 ± .05 /MG PROTEIN | effective in preventing dopamine depletion | 94% | –
5 | CC(=O)Nc1ccc(C(=O)NC(C)C)cc1 [CPI1232, N-iso-propyl-4-acetamidobenzamide] | – | – | – | – | 70% | –
6 | N-methylcyclopropyl-4-acetamidobenzamide [CPI1241] | – | – | – | – | 40% | –
7 | CC(C)NC(=O)c1ccc([N+](=O)[O-])cc1 [CPI1026, N-iso-propyl-4-nitrobenzamide] | 14.4 ± 14.4% | – | – | – | – | –
8 | CCC(C)(C)NC(=O)c1ccc([N+](=O)[O-])cc1 [CPI1033, N-tert-amyl-4-nitrobenzamide] | 31.7 ± 3.5% | – | – | – | – | –
9 | CCC(C)(C)NC(=O)c1ccc(NC(C)=O)cc1 [CPI1233, N-tert-amyl-4-acetamidobenzamide] | – | – | – | – | 40% | –
